According to patent US9040528B2, “Chemical compounds 542” (AstraZeneca AB, priority 2008, dated 2015):
Like-named read-outs stand apart in the source and are kept apart here.

Biological target: Escherichia coli DNA gyrase A/B tetramer (Escherichia coli (strain K12), UniProt P0AES4+P0AES6)
Test: DNA gyrase supercoiling activity fluorescence polarisation assay
Type: biochemical
Procedure, shortened: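 Supercoiling reactions quenched with 40 nM 5′-BODIPY-FL triplex-forming oligonucleotide probe in pH 3.5 NaCl/sodium acetate buffer; after 60 min, fluorescence anisotropy read (ex 485/em 535 nm). IC50 by nonlinear regression, normalised to 0.8% DMSO (100% activity) and 5 μM ciprofloxacin (0% activity).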

[1] = 5 nM enzyme, relaxed plasmid, 0.3 mM ATP, ambient temperature, read-out: E. coli DNA gyrase supercoiling IC50

| SMILES | IC50 [1] | IC50 |
| --- | --- | --- |
| CC1O[C@H](C)CN2c3c(cc4c(-c5cnccn5)noc4c3F)CC3(C(=O)NC(=O)NC3=O)[C@H]12 (stereo in doubt) [Example 165(a), (2R,4S,4aR)-11-fluoro-2,4-dimethyl-8-(pyrazin-2-yl)-2,4,4a,6-tetrahydro-1H,1′H-spiro[isoxazolo[4,5-g][1,4]oxazino[4,3-a]quinoline-5,5′-pyrimidine]-2′,4′,6′(3′H)-trione] | 7.8 µM |  |
| C[C@@H]1CN2c3c(cc4c(-n5cc(Cl)cn5)noc4c3F)CC3(C(=O)NC(=O)NC3=O)[C@H]2[C@H](C)O1 (relative stereo) [Example 61, (2R,4S,4aS)-rel-8-(4-chloro-1H-pyrazol-1-yl)-11-fluoro-2,4-dimethyl-1,2,4,4a-tetrahydro-2′H,6H-spiro[1,4-oxazino[4,3-a][1,2]oxazolo[4,5-g]quinoline-5,5′-pyrimidine]-2′,4′,6′(1′H,3′H)-trione] | 9.3 µM |  |
| C[C@@H]1CN2c3c(cc4c(C(=O)NCc5cccs5)noc4c3F)CC3(C(=O)NC(=O)NC3=O)[C@H]2[C@H](C)O1 (relative stereo) [Example 154, (2R,4S,4aS)-rel-11-fluoro-2,4-dimethyl-2′,4′,6′-trioxo-N-(thiophen-2-ylmethyl)-2,2′,3′,4,4a,4′,6,6′-octahydro-1H,1′H-spiro[isoxazolo[4,5-g][1,4]oxazino[4,3-a]quinoline-5,5′-pyrimidine]-8-carboxamide] | 1.5 µM |  |
| C[C@@H]1CN2c3c(cc4c(NCC5CCCCC5)noc4c3F)CC3(C(=O)NC(=O)NC3=O)[C@H]2[C@H](C)O1 (relative stereo) [Example 18, (2R,4S,4aS)-rel-8-[(cyclohexylmethyl)amino]-11-fluoro-2,4-dimethyl-1,2,4,4a-tetrahydro-2′H,6H-spiro[1,4-oxazino[4,3-a][1,2]oxazolo[4,5-g]quinoline-5,5′-pyrimidine]-2′,4′,6′(1′H,3′H)-trione] | 2.9 µM |  |
| C[C@@H]1CN2c3c(cc4c(N5CCCCC5)noc4c3F)CC3(C(=O)NC(=O)NC3=O)[C@H]2[C@H](C)O1 (relative stereo) [Example 21] |  | 2.4 µM |
| C[C@@H]1CN2c3c(cc4c(-n5cc(-c6ccncn6)cn5)noc4c3F)CC3(C(=O)NC(=O)NC3=O)[C@H]2[C@H](C)O1 (relative stereo) [Example 34, (2R,4S,4aS)-rel-11-fluoro-2,4-dimethyl-8-[4-(pyrimidin-4-yl)-1H-pyrazol-1-yl]-1,2,4,4a-tetrahydro-2′H,6H-spiro[1,4-oxazino[4,3-a][1,2]oxazolo[4,5-g]quinoline-5,5′-pyrimidine]-2′,4′,6′(1′H,3′H)-trione] | 16.3 µM |  |
| CSc1noc2c(F)c3c(cc12)CC1(C(=O)NC(=O)NC1=O)[C@H]1[C@H](C)O[C@H](C)CN31 (relative stereo) [Example 62, (2R,4S,4aS)-rel-11-fluoro-2,4-dimethyl-8-(methylsulfanyl)-1,2,4,4a-tetrahydro-2′H,6H-spiro[1,4-oxazino[4,3-a][1,2]oxazolo[4,5-g]quinoline-5,5′-pyrimidine]-2′,4′,6′(1′H,3′H)-trione] | 0.9 µM |  |
| C[C@@H]1CN2c3c(cc4c(-c5nccn5C)noc4c3Cl)CC3(C(=O)NC(=O)NC3=O)[C@H]2[C@H](C)O1 (relative stereo) [Example 89, (2R,4S,4aS)-rel-11-chloro-2,4-dimethyl-8-(1-methyl-1H-imidazol-2-yl)-1,2,4,4a-tetrahydro-2′H,6H-spiro[1,4-oxazino[4,3-a][1,2]oxazolo[4,5-g]quinoline-5,5′-pyrimidine]-2′,4′,6′(1′H,3′H)-trione] | 1.3 µM |  |
| C[C@@H]1CN2c3c(cc4c(C(=O)NC5CCOCC5)noc4c3F)CC3(C(=O)NC(=O)NC3=O)[C@H]2[C@H](C)O1 (relative stereo) [Example 146, (2R,4S,4aS)-rel-11-fluoro-2,4-dimethyl-2′,4′,6′-trioxo-N-(tetrahydro-2H-pyran-4-yl)-2,2′,3′,4,4a,4′,6,6′-octahydro-1H,1′H-spiro[isoxazolo[4,5-g][1,4]oxazino[4,3-a]quinoline-5,5′-pyrimidine]-8-carboxamide] | 4.9 µM |  |
| C[C@@H]1CN2c3c(cc4c(C5CC5)noc4c3F)CC3(C(=O)NC(=O)NC3=O)[C@H]2[C@H](C)O1 (relative stereo) [Example 4, (2R,4S,4aS)-rel-8-cyclopropyl-11-fluoro-2,4-dimethyl-1,2,4,4a-tetrahydro-2′H,6H-spiro[isoxazolo[4,5-g][1,4]oxazino[4,3-a]quinoline-5,5′-pyrimidine]-2′,4′,6′(1′H,3′H)-trione] | 0.3 µM |  |
| C[C@@H]1CN2c3c(cc4c(N5CCN(C(=O)OC(C)(C)C)CC5)noc4c3F)CC3(C(=O)NC(=O)NC3=O)[C@H]2[C@H](C)O1 (relative stereo) [Example 20, tert-butyl 4-[(2R,4S,4aS)-rel-11-fluoro-2,4-dimethyl-2′,4′,6′-trioxo-1,1′,2,3′,4,4′,4a,6′-octahydro-2′H,6H-spiro[isoxazolo[4,5-g][1,4]oxazino[4,3-a]quinoline-5,5′-pyrimidin]-8-yl]piperazine-1-carboxylate] | 20 µM |  |
| Cc1ncc(-c2noc3c(Cl)c4c(nc23)CC2(C(=O)NC(=O)NC2=O)[C@H]2[C@H](C)O[C@H](C)CN42)s1 (relative stereo) [Example 117, (2R,4S,4aS)-rel-11-Chloro-2,4-dimethyl-8-(2-methylthiazol-5-yl)-2,4,4a,6-tetrahydro-1H,1′H-spiro[isoxazolo[4,5-g][1,4]oxazino[4,3-a][1,5]naphthyridine-5,5′-pyrimidine]-2′,4′,6′(3′H)-trione] | 2 µM |  |
| Cc1cc(C(F)(F)F)nn1-c1noc2c(F)c3c(cc12)CC1(C(=O)NC(=O)NC1=O)[C@H]1[C@H](C)O[C@H](C)CN31 (relative stereo) [Example 27, (2R,4S,4aS)-rel-11-fluoro-2,4-dimethyl-8-[5-methyl-3-(trifluoromethyl)-1H-pyrazol-1-yl]-1,2,4,4a-tetrahydro-2′H,6H-spiro[isoxazolo[4,5-g][1,4]oxazino[4,3-a]quinoline-5,5′-pyrimidine]-2′,4′,6′(1′H,3′H)-trione] | 7.1 µM |  |
| C[C@@H]1CN2c3c(cc4c(C(=O)N5CCN(C)C(=O)C5)noc4c3F)CC3(C(=O)NC(=O)NC3=O)[C@H]2[C@H](C)O1 (relative stereo) [Example 141, (2R,4S,4aS)-rel-11-fluoro-2,4-dimethyl-8-(4-methyl-3-oxopiperazine-1-carbonyl)-2,4,4a,6-tetrahydro-1H,1′H-spiro[isoxazolo[4,5-g][1,4]oxazino[4,3-a]quinoline-5,5′-pyrimidine]-2′,4′,6′(3′H)-trione] | 4.9 µM |  |
| COc1cncc(-c2noc3c(F)c4c(cc23)CC2(C(=O)NC(=O)NC2=O)[C@H]2[C@H](C)O[C@H](C)CN42)n1 [Example 167, (2R,4S,4aS)-11-fluoro-8-(6-methoxypyrazin-2-yl)-2,4-dimethyl-2,4,4a,6-tetrahydro-1H,1′H-spiro[isoxazolo[4,5-g][1,4]oxazino[4,3-a]quinoline-5,5′-pyrimidine]-2′,4′,6′(3′H)-trione] | 1.1 µM |  |
| CNC(=O)c1noc2c(F)c3c(cc12)CC1(C(=O)NC(=O)NC1=O)[C@H]1[C@H](C)O[C@H](C)CN31 [Example 140(a), (2R,4S,4aS)-11-fluoro-N,2,4-trimethyl-2′,4′,6′-trioxo-2,2′,3′,4,4a,4′,6,6′-octahydro-1H,1′H-spiro[isoxazolo[4,5-g][1,4]oxazino[4,3-a]quinoline-5,5′-pyrimidine]-8-carboxamide] | 0.9 µM |  |
